Experimental data: article PMC6385104, “Momilactones A and B Are α-Amylase and α-Glucosidase Inhibitors” (Molecules, 2019)

Assays:
α-amylase = target: T1, α-amylase (Aspergillus oryzae, UniProt P0C1B3); assay: biochemical; assay type: biochemical; settings: for IC50: α-amylase from Aspergillus oryzae, starch substrate, 37 °C, pH 6.9, mean ± standard error, read-out: α-Amylase Inhibitory Assay (IC50) (converted)
T1 construct: purchased Sigma-Aldrich
Description: The inhibitory effect of MA and MB on α-amylase was assessed by starch-iodine method with a modified model as follows: in each well of a microplate (U-shape, Greiner Bio-one, NC, USA), 20 µL of each either MA or MB were pre-incubated with 20 µL of 1 U/mL α-amylase solution (from Aspergillus oryzae, Sigma-Aldrich, St. Louis, MO, USA) at 37 °C for 10 min. The reaction was initiated by pipetting 30 µL of starch (0.5% in deionized water) (soluble ACS reagent, Sigma-Aldrich, St. Louis, MO, USA). After 6 min incubation at 37 °C, an aliquot of 20 µL of hydrochloric acid (1 M) were added to stop reaction, followed by 120 µL of 0.25 mM aqueous iodine solution. The absorbance at 565 nm was read by a microplate reader (Multiskan^TM Microplate Spectrophotometer, Thermo Fisher Scientific, Osaka, Japan). The inhibitory activity of MA and MB on α-amylase was performed as the inhibition percentage that was calculated by the following formula:% inhibition = (A − C)/(B − C) × 100(2) where A is the absorbance of reaction with presence of MA or MB, B is the absorbance of reaction without enzyme, C is the absorbance of reaction with absence of the momilactones. […] Dilutions of test samples and dissolutions of enzyme used 20 mM sodium phosphate buffer (pH 6.9 comprising of 6 mM sodium chloride). α-Amylase solution and soluble starch solution were prepared and used on the day of experiment.

α-glucosidase = target: T2, α-glucosidase (Saccharomyces cerevisiae, UniProt P53341); assay: α-Glucosidase inhibition assay (pNPG substrate); assay type: biochemical; settings: for suppressive property on α-glucosidase relative to acarbose (fold greater than acarbose): ratio of IC50 values versus acarbose; for IC50: α-glucosidase from Saccharomyces cerevisiae, pNPG substrate, 25 °C, pH 7, mean ± standard error, read-out: α-Glucosidase Inhibitory Assay (IC50) (converted)
T2 construct: purchased Sigma-Aldrich
Description: The anti-α-glucosidase activity of MA and MB was evaluated using a method as described previously with some alterations. In brief, an amount of 20 µL methanolic stock solution of MA and MB were pre-mixed with an equal volume of 0.1 M potassium phosphate buffer (pH 7) and 40 µL of α-glucosidase (from Saccharomyces cerevisiae, Sigma-Aldrich, St. Louis, MO, USA) enzyme solution (0.5 U/mL in 0.1 M potassium phosphate buffer, pH 7). After 6 min incubation at 25 °C, a 20 µL aliquot of 5 mM p-nitrophenyl-α-D-glucopyranoside (pNPG) substrate (in 0.1 M potassium phosphate buffer, pH 7) was added to each reaction and the mixture was incubated for another 8 min. Eventually, the reaction was terminated by adding 100 µL of 0.2 M Na2CO3, and absorbance was recorded at 405 nm. […] IC50 value was obtained by the same way as above.

[1] = ratio of IC50 values, MB versus MA

T2 sequence (P53341 whole entry): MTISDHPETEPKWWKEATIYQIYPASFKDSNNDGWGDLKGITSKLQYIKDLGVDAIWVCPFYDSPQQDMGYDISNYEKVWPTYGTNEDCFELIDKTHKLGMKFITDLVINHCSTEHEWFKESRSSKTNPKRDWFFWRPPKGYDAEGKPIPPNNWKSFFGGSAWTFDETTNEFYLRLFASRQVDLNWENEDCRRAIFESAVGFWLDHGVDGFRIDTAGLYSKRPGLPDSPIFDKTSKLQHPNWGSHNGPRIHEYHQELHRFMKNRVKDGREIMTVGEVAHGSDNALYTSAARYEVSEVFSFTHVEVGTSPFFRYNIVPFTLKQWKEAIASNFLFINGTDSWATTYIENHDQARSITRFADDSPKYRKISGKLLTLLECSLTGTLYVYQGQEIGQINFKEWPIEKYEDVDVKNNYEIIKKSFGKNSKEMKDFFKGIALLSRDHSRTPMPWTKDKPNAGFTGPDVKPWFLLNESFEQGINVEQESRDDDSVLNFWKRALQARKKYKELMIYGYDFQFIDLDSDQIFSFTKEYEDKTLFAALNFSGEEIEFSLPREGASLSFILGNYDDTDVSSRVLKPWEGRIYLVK

SMILES	IC50 (α-amylase) [µM]	suppressive property on α-glucosidase relative to acarbose (fold greater than acarbose) (α-glucosidase) [fold]	IC50 (α-glucosidase) [µM]	inhibitory activity on α-amylase of MB relative to MA (fold stronger) (α-amylase; [1]) [fold]	inhibitory activity on α-glucosidase of MB relative to MA (fold stronger) (α-glucosidase; [1]) [fold]
C=C[C@]1(C)CC[C@H]2C(=C[C@H]3OC(=O)[C@@]4(C)C(=O)CC[C@@]2(C)[C@@H]34)C1 [MA, momilactone A]	848	2.5	3150		
C=CC1(C)CCC2C(=CC3OC(=O)C4(C)C3C23CCC4(O)OC3)C1 (centres unmarked) [MB, momilactone B]	444	4.2	1850	1.8	1.6
